Results taken from paper PMC10977697 (PLOS ONE, 2024).
Where no end group is shown, it is not given here.

How the values were obtained:
ApoL1 = assay: Spot phage ELISA, ApoL1; assay type: binding, human; details: ratio of signal for target protein over BSA background
PCSK9 = assay type: binding, human; details: for S/N: spot phage ELISA signal-to-noise on PCSK9

| Sequence | S/N (ApoL1) | S/N (PCSK9) | other results |
| --- | --- | --- | --- |
| GCLFKKAMGFCKQDSDCLAGCVCREMSHCG (also: bicyclic or more (positions not given here)) [ApoL1 EET I-II 3] | 52.4 | – | – |
| GCKFKCKQDSDCLAGCVCGHYDHCG (also: bicyclic or more (positions not given here)) [ApoL1 EET I-II 28] | 23.6 | – | – |
| GCMFKQRHCKQDSDCLAGCVCSQGQPCG (also: bicyclic or more (positions not given here)) [ApoL1 EET I-II 5] | 47.1 | – | – |
| GPTQSPFGQCGGIGYSGPTVCASGTTCQVLRPNFSWCLPGAS (also: bicyclic or more (positions not given here)) [ApoL1 CBD 1] | 21.6 | – | – |
| GCLFKQEMGTCKQDSDCLAGCVCEFQQKCG (also: bicyclic or more (positions not given here)) [ApoL1 EET I-II 16] | 40.2 | – | – |
| GCRFMSHMRKRECKQDSDCLAGCVCDYQTACG (also: bicyclic or more (positions not given here)) [ApoL1 EET I-II 1] | 70.0 | – | – |
| GCLFKRHFCKQDSDCLAGCVCVDQFPCG (also: bicyclic or more (positions not given here)) [ApoL1 EET I-II 21] | 35.5 | – | – |
| GCLFRRNFCKQDSDCLAGCVCEPFPECG (also: bicyclic or more (positions not given here)) [ApoL1 EET I-II 31] | 17.5 | – | – |
| GCKFRNWLCKQDSDCLAGCVCPWDTHCG (also: bicyclic or more (positions not given here)) [ApoL1 EET I-II 43] | 6.6 | – | – |
| GCRFWQWRCKQDSDCLAGCVCGWDRECG (also: bicyclic or more (positions not given here)) [ApoL1 EET I-II 32] | 17.1 | – | – |
| GCKFKHFLCKQDSDCLAGCVCDDLQNCG (also: bicyclic or more (positions not given here)) [ApoL1 EET I-II 9] | 43.0 | – | – |
| GCKFKHWYCKQDSDCLAGCVCCPPNHYG [ApoL1 EET I-II 11] | 41.1 | – | – |
| GCAFRRHVCKQDSDCLAGCVCDKSDGCG (also: bicyclic or more (positions not given here)) [ApoL1 EET I-II 25] | 25.7 | – | – |
| GCRFREMFYKVTCKQDSDCLAGCVCSHEANCG (also: bicyclic or more (positions not given here)) [ApoL1 EET I-II 8] | 43.8 | – | – |
| GCKFWLHRYKQDSDCLAGCVCGPNVFG [ApoL1 EET I-II 4] | 47.1 | – | – |
| GCKFRRWKCKQDSDCLAGCVCDPQGPCG (also: bicyclic or more (positions not given here)) [ApoL1 EET I-II 39] | 9.9 | – | – |
| GCKFAKARCKQDSDCLAGCVCSPVRKCG (also: bicyclic or more (positions not given here)) [ApoL1 EET I-II 10] | 42.7 | – | – |
| GCKFRLWFCKQDSYCLPGCVCGPNGFCG (also: bicyclic or more (positions not given here)) [ApoL1 EET I-II 42] | 7.2 | – | – |
| GCSWKCKQDSDCLAGCVCKMSQQCG (also: bicyclic or more (positions not given here)) [ApoL1 EET I-II 45] | 4.7 | – | – |
| GCKFKWHFCKQDSDCLAGCVCQPHETCG (also: bicyclic or more (positions not given here)) [ApoL1 EET I-II 36] | 12.4 | – | – |

| Sequence | S/N (ApoL1) | S/N (PCSK9) | other results |
| --- | --- | --- | --- |
| GCKFMNWKCKQDSDCLAGCVCTENEPCG (also: bicyclic or more (positions not given here)) [ApoL1 EET I-II 2] | 53.2 | – | – |
| GCKFHLWFCKQDSDCLAGCVCDPNGFCS (also: bicyclic or more (positions not given here)) [ApoL1 EET I-II 33] | 15.3 | – | – |
| GCGWWYRQWFCKQDSDCLAGCVCLETPECG (disulfide (positions not given here)) [PCSK9 EET I-II 16] | – | 15.7 | – |
| GPTQSTYGRCGGIGYSGPTVCASGTTCQVLWPALSWCLPGAS (disulfide (positions not given here)) [PCSK9 CBD 4] | – | 3.7 | – |
| GPTQSEYGMCGGIGYSGPTVCASGTTCQVLDPTTSQCLPGAS (disulfide (positions not given here)) [PCSK9 CBD 10] | – | 7.2 | – |
| GCGYWYRIWFCKQDSDCLAGCVCGPNGFCG (disulfide (positions not given here)) [PCSK9 EET I-II 9] | – | 9.4 | – |
| GCMFQMHFCKQDSDCLAGCVCGMSDCCG [ApoL1 EET I-II 27] | 23.7 | – | – |
| GCKFKRHMCKQDSDCLAGCVCTVKQNCG (also: bicyclic or more (positions not given here)) [ApoL1 EET I-II 41] | 8.3 | – | – |
| GCAFQFYLCKQDSDCLAGCVCGGTQSCG (also: bicyclic or more (positions not given here)) [ApoL1 EET I-II 38] | 11.5 | – | – |
| GCMFLRHFNRCKQDSDCLAGCVCPHIPDCG (also: bicyclic or more (positions not given here)) [ApoL1 EET I-II 26] | 24.0 | – | – |
| GPTQSPGGICGGIGYSGPTVCASGTTCQVLSPEYSQCLPGAS (disulfide (positions not given here)) [PCSK9 CBD 19] | – | 15.8 | – |
| GPTQSAFGPCGGIGYSGPTVCASGTTCQVLSPDVSQCLPGAS (disulfide (positions not given here)) [PCSK9 CBD 5] | – | 2.6 | – |
| GCKYKCKQDSDCLAGCVCQQQGGCG (also: bicyclic or more (positions not given here)) [ApoL1 EET I-II 14] | 40.2 | – | – |
| GCKFWSRFCKQDSDCLAGCVCKNTDHCG (also: bicyclic or more (positions not given here)) [ApoL1 EET I-II 6] | 44.8 | – | – |
| GCYHGYWYITWFCKQDSDCLAGCVCSQDEQCG (disulfide (positions not given here)) [PCSK9 EET I-II 14] | – | 17.0 | – |
| GCGYWWRQWFCKQGSDCLAGCVCGPNGFCG (disulfide (positions not given here)) [PCSK9 EET I-II 7] | – | 20.9 | – |
| GCWWWGRIHCKQDSDCLAGWGQHCG (disulfide (positions not given here)) [PCSK9 EET I-II 15] | – | 44.9 | – |
| GCRFRLWAMKSHCKQDSDCLAGCVCSDYSDCG (also: bicyclic or more (positions not given here)) [ApoL1 EET I-II 13] | 40.4 | – | – |
| GCKFKSFTCKQDSDCLAGCVCWDQDTCG (also: bicyclic or more (positions not given here)) [ApoL1 EET I-II 7] | 44.3 | – | – |
| GCHYRRNRWEQACKQDSDCLAGCVCQGMPKCG (also: bicyclic or more (positions not given here)) [ApoL1 EET I-II 18] | 38.3 | – | – |

| Sequence | S/N (ApoL1) | S/N (PCSK9) | other results |
| --- | --- | --- | --- |
| GPTQSMYGMCGGIGYSGPTVCASGTTCQVLDPNTSQCLPGAS (disulfide (positions not given here)) [PCSK9 CBD 11] | – | 6.9 | – |
| GCYYKCKQDSDCLAGCVCRTSNMCG (also: bicyclic or more (positions not given here)) [ApoL1 EET I-II 17] | 39.0 | – | – |
| GCRFRQHWCKQDSDCLAGCVCLEQPECG (also: bicyclic or more (positions not given here)) [ApoL1 EET I-II 24] | 30.3 | – | – |
| GCGYWFYEWFCKQDSDCLAGCVCDPNGFCG (disulfide (positions not given here)) [PCSK9 EET I-II 20] | – | 9.0 | – |
| GCKMKKYMCKQDSDCLAGCVCHQQSKCG (also: bicyclic or more (positions not given here)) [ApoL1 EET I-II 40] | 8.9 | – | – |
| GCKFRLWHCKQDSDCLAGCVCTAQPDCG (also: bicyclic or more (positions not given here)) [ApoL1 EET I-II 47] | 3.6 | – | – |
| GPTQSMCGMCGGIGYSGPTVCASGTTCQVLDPHTSQCLPGAS (disulfide (positions not given here)) [PCSK9 CBD 18] | – | 14.0 | – |
| GCGYWFKMWFCKQDSDCLAGCVCYPGASCG (disulfide (positions not given here)) [PCSK9 EET I-II 8] | – | 9.7 | – |
| GCGYWYRVWFCKQDSDCLAGCVCQEPGPCG (disulfide (positions not given here)) [PCSK9 EET I-II 3] | – | 6.4 | – |
| GCKFWFWRLCKQDSDCLAGCVCAGSPPCG (also: bicyclic or more (positions not given here)) [ApoL1 EET I-II 35] | 14.1 | – | – |
| GCGFWKWMHGCKQDSDCLAGCVCGPNGFCG (also: bicyclic or more (positions not given here)) [ApoL1 EET I-II 46] | 3.9 | – | – |
| GCGYWFIQWFCKQDSDCLAGCVCGPNGFCG (disulfide (positions not given here)) [PCSK9 EET I-II 1] | – | 21.8 | – |
| GCRFKRHKCKQDSDCLAGCVCPEMSTCG (also: bicyclic or more (positions not given here)) [ApoL1 EET I-II 15] | 40.2 | – | – |
| GPTQSNYGMCGGIGYSGPTVCASGTTCQVLYPTTSRCLPGAS (also: bicyclic or more (positions not given here)) [PCSK9FL_CBD1] | – | – | s/n ratio (PCSK9; ratio of signal for target protein over BSA background): 17.7 |
| GCMFKAHWCKQDSDCLAGCVCHRSALCG (also: bicyclic or more (positions not given here)) [ApoL1 EET I-II 12] | 41.1 | – | – |
| GCGYWWKQWFCKQDSDCLAGCVCGPNGFCG (disulfide (positions not given here)) [PCSK9 EET I-II 17] | – | 17.6 | – |
| GCHFKVWWCKQDSDCLAGCVCDPAVICG (also: bicyclic or more (positions not given here)) [ApoL1 EET I-II 44] | 6.1 | – | – |
| GPTQSYGQCGGIGYSGPTVCASGTTCQVLWPQVSWCLPGAST (disulfide (positions not given here)) [PCSK9 CBD 6] | – | 2.9 | – |
| GCSWVPYWCKQDSDCLAGCVCWEMVWCD (disulfide (positions not given here)) [PCSK9 EET I-II 6] | – | 7.0 | – |
| GCGSHFAPWFGCKQDSDCLSWLCLYAADGLW (disulfide (positions not given here)) [PCSK9 EET I-II 5] | – | 18.1 | – |
